“Also recorded” adds a separate entry of the source.
What was measured:
Arabidopsis thaliana [1] = test: A. thaliana growth test, watering and spraying with miPEP319a; type: in vivo; details: 0.1 μM synthetic peptide, watered and sprayed, after 3 weeks of growth vs water control; FIG. 8
Procedure: Arabidopsis thaliana seeds were germinated on GiFi, and then were transferred onto compost and were grown for 3 weeks.
Watering was carried out every 2-3 days and spraying was carried out every day, with water for the control plants and with water containing 0.1 μM of synthetic peptide (the sequence of which is identical to miPEP319a) for the test plants.

AtmiR319a = test: qPCR of AtmiR319a relative expression in plants overexpressing AtmiPEP319a; type: in vivo, Arabidopsis thaliana; details: plant overexpressing AtmiPEP319a (35S promoter) vs control plant; n=10; FIG. 7
Procedure: The error bar corresponds to the standard error of the mean (number of individuals=10).
The RNA was extracted using the reagent Tri-Reagent (MRC) according to the manufacturer's instructions, apart from precipitation of the RNA, which was carried out with 3 volumes of ethanol. Reverse transcription of the RNA was carried out using the stem-loop specific primer RTprimer in combination with hexamers in order to carry out reverse transcription of RNA of high molecular weight. Briefly, 1 μg of RNA was added to the stem-loop specific primer (0.2 μM), hexamer (500 ng), buffer RT (1×), the enzyme SuperScript Reverse transcriptase (SSIII) (one unit), dNTPs (0.2 mM each), DTT (0.8 mM) in a final reaction mixture of 25 μl. In order to carry out the reverse transcription, a pulsed reverse transcription reaction was carried out (40 repetitions of the following cycle: 16° C. for 2 minutes, 42° C. for one minute and 50° C. for one second, followed by final inactivation of the reverse transcription at 85° C. for 5 minutes).
The total RNA of the roots of M. truncatula or of the leaves of tobacco was extracted using the extraction kit RNeasy Plant Mini Kit (Qiagen). Reverse transcription was carried out using the reverse transcriptase SuperScript II (Invitrogen) starting from 500 ng of total RNA. Three repetitions (n=3) were carried out, each with two technical repetitions. […]

Arabidopsis thaliana [2] = test: A. thaliana growth test, watering with miPEP164a; type: in vivo; details: watered and sprayed
Procedure: Watering was carried out every 2-3 days with water for the control plants and with water containing 0.1 μM or 1 μM of synthetic peptide (the sequence of which is identical to miPEP164a or to miPEP165a) for the test plants.

miR164a = test: Northern blot analysis of the accumulation of miR164a in roots treated with synthetic peptide; type: in vivo, Arabidopsis thaliana; details: 0.1 μM synthetic peptide solubilized in water vs water control, U6 loading control, FIG. 1
Procedure: The photographs show the results of a Northern blot analysis of the accumulation of miR164a in roots treated with water (control, photograph on the left) or with 0.1 μM of a synthetic peptide, having a sequence identical to that of miPEP164a, solubilized in water (0.1 μM miPEP164a). The RNA U6 is used as a loading control, allowing the quantity of miR164a to be quantified.
The A. thaliana Col-0 plants are cultivated on MS basic medium supplemented with 10 g/l of sucrose.
Northern blot analysis was carried out according to the protocol described in Lauressergues et al. Plant J, 72(3):512-22, 2012.
The biological samples were homogenized in a buffer containing 0.1 M of NaCl, 2% SDS, 50 mM of Tris-HCl (pH 9), 10 mM of EDTA (pH 8) and 20 mM of mercaptoethanol, and the RNA was extracted twice with a phenol/chloroform mixture and precipitated with ethanol.
The RNA was loaded on PAGE 15% gel and transferred onto a nylon membrane (HybondNX, Amersham). The RNA was hybridized with an oligonucleotide probe, with radioactive labelling at its end, for detecting the RNA U6 or for miR164a.
The hybridizations were carried out at 55° C. The hybridization signals were quantified using a phosphorimager (Fuji) and normalized with the signal of the probe specific to the RNA U6.

[3] = 1 μM synthetic peptide, after 39 days of growth vs water control, FIG. 3

miPEP319a: Peptide encoded by miORF on pri-miR319a of A. thaliana, SEQ ID NO: 10, MNIHTYHHLLFPSLVFHQSSDVPNALSLHIHTYEYIIVVIDPFRITLAFR (listed as Arabidopsis thaliana)
plant growth (Arabidopsis thaliana [1]): increases the plant's growth significantly | accumulation (relative expression) of AtmiR319a (AtmiR319a): increase in the accumulation of Atmir319a

miPEP164a: Peptide encoded by miORF on pri-miR164a of A. thaliana, SEQ ID NO: 2, MPSWHGMVLLPYVKHTHASTHTHTHNIYGCACELVFH (listed as Arabidopsis thaliana)
plant growth (Arabidopsis thaliana [2]; 0.1 μM synthetic peptide, after 3 weeks of growth vs water control, FIG. 2): increases the plant's growth significantly; also recorded: increases the plants' growth significantly | number of flowers (Arabidopsis thaliana [2]; [3]): increases the plant's growth and number of flowers significantly | plant growth (Arabidopsis thaliana [2]; [3]): increases the plant's growth and number of flowers significantly | accumulation of miR164a (miR164a): increase in the accumulation of miR164a

From patent US10563214B2, “Use of micropeptides for promoting plant growth” (UNIVERSITE TOULOUSE III-PAUL SABATIER, priority 2014, dated 2020)
